The numbers were not newly measured in PubChem BioAssay AID1259409 (Chemical Carcinogenesis Research Information System (CCRIS), 2018), which cites them from elsewhere.

Each structure is given as a SMILES string.

For the data set, the system named is rodent chemically induced tumor inhibition, incidence and multiplicity. In words: CCRIS tumor inhibitor studies. The settings on record: Route [Inhibitor]: ORAL, Species: RAT, Promoter: NONE USED; for tumour outcome (control, treated, inhibition, significance): Carcinogen: N-NITROSOSARCOSINE ETHYL ESTER, 1130-69-4, Strain/Sex: SPRAGUE-DAWLEY/MALE, Dose [Carcinogen]: 10 ML/KG BW 2/WK FOR 8 WK.

For `[O]=[W](=[O])([OH])[OH]`, where the note is “Carcinogen: N-NITROSO-N-METHYLUREA, 684-93-5, Dose [Inhibitor]: 0, 150 PPM IN DRINKING WATER BEGINNING AT 35 D OF AGE (STUDY DURATION:198 D), Strain/Sex: SPRAGUE-DAWLEY/FEMALE, Target Tissue: Type of Lesion: MAMMARY GLAND: CARCINOMA, Dose [Carcinogen]: 5 MG/100 G BW ONCE AT 50 D OF AGE”, the outcome is 50%, 79%, -58%, p<0.05 at 125 d; 91%, 96%, -5%, not calculated at 198 d. Moreover, the “tumour outcome (control, treated, inhibition, significance)” value reads like this: (Dose [Inhibitor]: 100 PPM IN DRINKING WATER DAILY FOR 19 WK STARTING 3 WK PRIOR TO START OF CARCINOGEN TREATMENT (STUDY DURATION: 19 WK), Target Tissue: Type of Lesion: ESOPHAGUS: CARCINOMA) 80%, 80%, 0%, not significant; (Dose [Inhibitor]: 100 PPM IN DRINKING WATER DAILY FOR 19 WK STARTING 3 WK PRIOR TO START OF CARCINOGEN TREATMENT (STUDY DURATION: 19 WK), Target Tissue: Type of Lesion: FORESTOMACH: CARCINOMA) 70%, 80%, -14%, not significant; (Dose [Inhibitor]: 100 PPM IN DRINKING WATER DAILY FOR 30 WK STARTING 3 WK PRIOR TO START OF CARCINOGEN TREATMENT (STUDY DURATION: 30 WK), Target Tissue: Type of Lesion: ESOPHAGUS: CARCINOMA) 91%, 86%, 5%, not significant; (Dose [Inhibitor]: 100 PPM IN DRINKING WATER DAILY FOR 30 WK STARTING 3 WK PRIOR TO START OF CARCINOGEN TREATMENT (STUDY DURATION: 30 WK), Target Tissue: Type of Lesion: FORESTOMACH: CARCINOMA) 100%, 100%, 0%, not significant.
